Three sequences from US10906933B2, “Coupled peptide chain for dissolving poorly soluble polypeptides and application thereof for separation and purification in liquid chromatography” (Spec-Chem Industry Inc., priority 2015, dated 2021) can be followed below.

The data set can be described thus: Dissolving capacity evaluation of peptide chains at 2 mg/mL in solvents. The format is physicochemical. The following applies: for Dissolving capacity, ACN:H2O (1:3): 2 mg/mL in ACN:H2O (1:3) solution in HPLC; for Dissolving capacity, DMF: 2 mg/mL in DMF solution; for Dissolving capacity, DMSO: 2 mg/mL in DMSO solution. The protocol: This test evaluated the dissolving capacity of each group of peptide chain at 2 mg/mL in a DMF solution, a DMSO solution, an ACN:H2O (1:3) solution in HPLC, and an LiOH saturated solution, respectively. The poorly soluble polypeptide chain-linker arm-hydrophilic polypeptide chain in embodiments 1 and 2 were taken as Groups 1 and 2, respectively, and a separate poorly soluble polypeptide chain […] (SEQ ID NO: 1) was taken as a control group, as shown in Table 3: […]

[1] abbreviates: listed as ILVLLIII (SEQ ID NO: 1) 4-HMBA-DDDDDEEKEEEE (SEQ ID NO: 2).

As to “ILVLLIII (SEQ ID NO: 1)-HMBA-DDDDDEEKEEEE (SEQ ID NO: 2) [Group 1]”, under setting [1], the “Dissolving capacity, ACN:H2O (1:3)” value is “clear with no solids precipitating”; the “Dissolving capacity, DMF” value was “clear with no solids precipitating”; the “Dissolving capacity, DMSO” value was “clear with no solids precipitating”.
Turning to “ILVLLIII (SEQ ID NO: 1) (Poorly soluble polypeptide) [Group 3, the target peptide, reference compound]”, the “Dissolving capacity, ACN:H2O (1:3)” value is listed as “very cloudy with solids precipitating”; the “Dissolving capacity, DMF” value is recorded as “very cloudy with solids precipitating”; the “Dissolving capacity, DMSO” value is reported as “very cloudy with solids precipitating”.
With “ILVLLIII (SEQ ID NO: 1)-HPA-RRRRREDKKKKK (SEQ ID NO: 3) [Group 2]”, the “Dissolving capacity, ACN:H2O (1:3)” value was “completely dissolved”; the “Dissolving capacity, DMF” value is given as “solids still precipitated”; the “Dissolving capacity, DMSO” value was “solids still precipitated”. Moreover, the “Dissolving capacity, LiOH saturated solution” value (2 mg/mL in LiOH saturated solution, listed as second group) is given as “obviously not better than that of the first group”.
